From article PMC12362618, “Development of the First Small-Molecule Inhibitor Targeting Oncostatin M for Treatment of Breast Cancer” (Journal of Medicinal Chemistry, 2025)
“Also recorded” adds a separate entry of the source.

Tests used:
[1] = tested on: OSM-induced pSTAT3 in MDA-MB-231 human breast cancer cells; assay: pSTAT3 ELISA in MDA-MB-231 cells treated with OSM ± SMI; type: cell-based; conditions: SMI 10 μM, OSM 10 ng/mL, 30 min
Procedure: 2 High-throughput virtual screening identifies three novel compounds capable of interacting with site III of OSM. […] (F) Structure of parent SMI-10. Data are presented as mean ± SD relative to + OSM treatment, analyzed by one-way ANOVA with Tukey’s posttest *p < 0.05, **p < 0.01. To test the effect of SMIs in vitro, each SMI was incubated with OSM for a period of 1 h at 37 °C, and T47D and MDA-MB-231 human breast cancer cell lines were subsequently treated with OSM (10 ng/mL) and/or SMI-10 (10 μM) analogs for 30 min and measured for pSTAT3 levels via ELISA. The results of these assays are presented graphically in Figure and, for T47D cells, in Table as a percentage of reduction from +OSM alone. For phospho-STAT3 (pSTAT3) ELISAs, T47D MDA-MB-231, and MCF-7 cells were seeded in 12- or 24-well plates at 70–75% confluency and allowed to adhere overnight, after which cells were serum-starved with serum-free RPMI-1640 for 4 h. SMIs (10 μM in DMSO or serially diluted to specified concentrations from a 100 mM stock in DMSO) and human recombinant OSM (10 ng/mL; PeproTech; #300–10T-10UG) were incubated in serum-free RPMI-1640 medium for 1 h. After incubation, the SMI-10 analogs or SMI-10B13 and OSM were added to the serum-starved cells for 30 min. Immediately afterward, the cells were lysed using 1x PathScan Sandwich ELISA Lysis Buffer (Cell Signaling Technology; #7018S), collected, and stored at −20 °C. Lysates were analyzed for pSTAT3 levels using either the PathScan Phospho-STAT3 (Tyr705) Sandwich ELISA Antibody Pair kit (Cell Signaling Technology; #7146) or Human/Mouse Phospho-STAT3 (Y705) DuoSet IC ELISA (R&D Systems; DYC4607B), according to manufacture’s protocol. pSTAT3 expression was measured with absorbance at 450 nm and quantified by comparison relative to OSM-induced pSTAT3 levels. To calculate an IC50 for SMI-10B13, a standard curve was generated as described in the DuoSet IC ELISA datasheet to determine the concentration of pSTAT3.

OSM = molecular target: T1, OSM (Homo sapiens, UniProt P13725); assay: Fluorescence quenching assay of SMI binding to OSM; conditions: average of three independent replicates, errors at 95% confidence level, read-out: KD (OSM-SMI dissociation constant)
T1 sequence (P13725 26-252): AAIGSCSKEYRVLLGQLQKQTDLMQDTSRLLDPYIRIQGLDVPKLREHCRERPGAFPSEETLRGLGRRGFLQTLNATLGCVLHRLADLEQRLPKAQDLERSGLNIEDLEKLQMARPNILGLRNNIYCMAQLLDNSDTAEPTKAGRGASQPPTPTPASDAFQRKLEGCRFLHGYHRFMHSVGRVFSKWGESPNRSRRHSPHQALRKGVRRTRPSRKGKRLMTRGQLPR
Procedure: To perform fluorescence quenching assays, 2 mL of 1 μM OSM solution in polymethylmethacrylate cuvettes was prepared by dilution of a concentrated stock solution of recombinant OSM with buffer solution (100 mM sodium chloride, 50 mM sodium phosphate, 50 mM freshly added DTT, pH = 6.6). Cuvettes were titrated with 5 μL increments of a 1 mM small molecule stock solution in DMSO, with a cuvette titrated with an equivalent volume of DMSO as a control. […] In cases where little to no significant quenching was observed, the titration was supplemented with 2.5 μL increments of a 10 mM small molecule stock solution to increase the concentration delivered. The fluorescence intensity measurements were obtained on a Cary Eclipse spectrofluorometer equipped with a Xenon arc lamp. Fluorescence intensities were measured by exciting at 280 nm (4 nm slit width) and recording the emission from 345 to 355 nm with a photomultiplier tube voltage of 700 V, unless otherwise noted. Each titration point was normalized to OSM’s native fluorescence intensity, corrected by adding the decrease in fluorescence intensity caused by dilution with DMSO, and the average value of the three replicates for each point was plotted against concentration of small molecule delivered and fit to a modified Stern–Volmer function as described by Charlier and Plapp. Binding affinity (K D) values were obtained […] from the fitting routine. All curve-fitting analysis was performed in GraphPad Prism 8.0.

[2] = tested on: OSM-induced pSTAT3 in T47D human breast cancer cells; assay: pSTAT3 ELISA in T47D cells treated with OSM ± SMI; type: cell-based; conditions: T47D, 30 min; for Relative pSTAT3 Levels (Table 1, SMI-10A-10J): SMI 10 μM + OSM 10 ng/mL, ELISA, relative to +OSM, no-treatment blank subtracted; for Inhibition of OSM-induced pSTAT3 via ELISA: SMI 10 μM, OSM 10 ng/mL
Procedure: To test the effect of SMIs in vitro, each SMI was incubated with OSM for a period of 1 h at 37 °C, and T47D and MDA-MB-231 human breast cancer cell lines were subsequently treated with OSM (10 ng/mL) and/or SMI-10 (10 μM) analogs for 30 min and measured for pSTAT3 levels via ELISA. The results of these assays are presented graphically in Figure and, for T47D cells, in Table as a percentage of reduction from +OSM alone. For phospho-STAT3 (pSTAT3) ELISAs, T47D MDA-MB-231, and MCF-7 cells were seeded in 12- or 24-well plates at 70–75% confluency and allowed to adhere overnight, after which cells were serum-starved with serum-free RPMI-1640 for 4 h. SMIs (10 μM in DMSO or serially diluted to specified concentrations from a 100 mM stock in DMSO) and human recombinant OSM (10 ng/mL; PeproTech; #300–10T-10UG) were incubated in serum-free RPMI-1640 medium for 1 h. After incubation, the SMI-10 analogs or SMI-10B13 and OSM were added to the serum-starved cells for 30 min. Immediately afterward, the cells were lysed using 1x PathScan Sandwich ELISA Lysis Buffer (Cell Signaling Technology; #7018S), collected, and stored at −20 °C. Lysates were analyzed for pSTAT3 levels using either the PathScan Phospho-STAT3 (Tyr705) Sandwich ELISA Antibody Pair kit (Cell Signaling Technology; #7146) or Human/Mouse Phospho-STAT3 (Y705) DuoSet IC ELISA (R&D Systems; DYC4607B), according to manufacture’s protocol. pSTAT3 expression was measured with absorbance at 450 nm and quantified by comparison relative to OSM-induced pSTAT3 levels. To calculate an IC50 for SMI-10B13, a standard curve was generated as described in the DuoSet IC ELISA datasheet to determine the concentration of pSTAT3.

[3] = tested on: OSM-mediated signaling (pSTAT3, pAKT, pJNK, pERK) in T47D cells; assay: Immunoblot of OSM-mediated signaling in T47D cells; type: cell-based, human; conditions: SMI 10 μM, OSM 10 ng/mL, 30 min
Procedure: For immunoblot analysis, T47D breast cancer cells were treated and collected in the same manner as described above for the ELISA preparation. After lysate collection, samples were run on a 10% SDS-PAGE gel and transferred to a nitrocellulose membrane via semidry transfer. Blots were rinsed with DI H2O and allowed to completely dry at room temperature before blocking with LiCor Intercept PBS Blocking Buffer (LiCor, Lincoln, NE; Cat# 927-90001) for 1 h. After blocking, primary antibodies (1:1000) suspended in blocking buffer supplemented with 0.1% Tween were added, shaken at room temperature for 1 h, and stored at 4 °C overnight. Membranes were then washed 6 times for 5 minutes each with 1X PBS supplemented with 0.5% Tween while shaking at room temperature, and secondary antibodies (1:15,000) were applied and incubated for 1 h. Afterward, membranes were washed as previously described above and imaged at 700 nm using the LiCor Odyssey CLx Imaging System. Quantification of immunoblots was performed using the LiCor Image Studio software, normalizing to β-Actin, and calculating relative fold change compared to nontreated samples. Antibodies used included phospho-STAT3 (Y705) (Cell Signaling Technology, Danvers, MA; cat. no. 9145), phospho-AKT (S473) (Cell Signaling Technology, Danvers, MA; cat. no. 4060), phospho-JNK ([…]/[…]) (Cell Signaling Technology, Danvers, MA; cat. no. 4668), phospho-ERK (T202/Y204) (Cell Signaling Technology, Danvers, MA; cat. no. 9101), β-Actin (Cell Signaling Technology; cat. no. 3700), and donkey antirabbit IRDye 800CW (LiCor, Lincoln, NE; Cat# 925-32213).

[4] = tested on: T47D and MCF-7 human breast cancer cells; assay: MTS cell viability assay; type: cell-based
Procedure: Cell viability was assessed using the CellTiter 96 AQueous One Solution Cell Proliferation Assay (Promega, cat. no. G3580), following the manufacturer’s instructions. Briefly, T47D and MCF-7 human breast cancer cells were seeded in 96-well plates at a density of 10,000 cells/well in 100 μL of complete growth medium and allowed to adhere overnight. Cells were then treated with a serial dilution (100 μM to 0.1 nM) of SMI-10B, SMI-10B13, Temozolomide (positive control), or vehicle (DMSO) for 24 h. Following treatment, 20 μL of MTS reagent was added directly to each well, and plates were incubated at 37 °C in a humidified incubator with 5% CO2 and imaged after 1 h of incubation. Absorbance was measured at 490 nm by using a microplate reader. Cell viability was expressed as a percentage relative to the vehicle-treated controls, and experiments were performed in triplicate.

| SMILES | Kd (OSM) [µM] | Inhibition of OSM-induced pSTAT3 via ELISA [1] | Relative pSTAT3 Levels (Table 1, SMI-10A-10J) [2] [%] | Inhibition of OSM-induced pSTAT3 via ELISA [2] | Inhibition of OSM-mediated signaling cascades by immunoblot (words) [3] | Cytotoxicity / cell viability via MTS assay [4] |
| --- | --- | --- | --- | --- | --- | --- |
| c1ccc(CNCc2cc(-c3ccc4c(c3)OCO4)c(-c3ccc4c(c3)OCO4)o2)cc1 [SMI-10F, N-Benzyl-1-(4,5-bis(benzo[d][1,3]dioxol-5-yl)furan-2-yl)methanamine] | 16.8 ± 4.1 | capable of inhibiting OSM-induced pSTAT3 | 10.1 | capable of inhibiting OSM-induced pSTAT3 | capable of inhibiting multiple cascades; also recorded: significant reductions, near nontreated levels |  |
| O=[N+]([O-])c1c(/C=N/Nc2ccccc2)oc(-c2ccc3c(c2)OCO3)c1-c1ccc2c(c1)OCO2 [SMI-10] |  | effective inhibitors of OSM |  |  |  |  |
| Cn1nnc2c(C(N)=O)ncn2c1=O [Temozolomide, reference compound] |  |  |  |  |  | moderate toxicity as concentration increases |

More lines, main results first:

| Kd (OSM) [µM] | SMILES | Inhibition of OSM-induced pSTAT3 via ELISA [1] | Relative pSTAT3 Levels (Table 1, SMI-10A-10J) [2] [%] | Inhibition of OSM-induced pSTAT3 via ELISA [2] | Inhibition of OSM-mediated signaling cascades by immunoblot (words) [3] | Cytotoxicity / cell viability via MTS assay [4] |
| --- | --- | --- | --- | --- | --- | --- |
| 32.5 ± 3.4 | O=C(/C=C/c1cc(-c2ccc3c(c2)OCO3)c(-c2ccc3c(c2)OCO3)o1)c1ccccc1 [SMI-10C] | capable of inhibiting OSM-induced pSTAT3 | 11.9 | capable of inhibiting OSM-induced pSTAT3 | capable of inhibiting multiple cascades; also recorded: significant reductions, near nontreated levels |  |
| 20.9 ± 2.4 | CCOC(=O)/C=C/c1cc(-c2ccc3c(c2)OCO3)c(-c2ccc3c(c2)OCO3)o1 [SMI-10D, Ethyl (E)-3-(4,5-Bis(benzo[d][1,3]dioxol-5-yl)furan-2-yl)acrylate] | capable of inhibiting OSM-induced pSTAT3 | 9.0 | capable of inhibiting OSM-induced pSTAT3 | capable of inhibiting multiple cascades; also recorded: significant reductions, near nontreated levels |  |
| 21.2 ± 2.7 | C(=N\Nc1ccccc1)/c1cc(-c2ccc3c(c2)OCO3)c(-c2ccc3c(c2)OCO3)o1 [SMI-10E, (E)-1-((4,5-Bis(benzo[d][1,3]dioxol-5-yl)furan-2-yl)methylene)-2-phenylhydrazine] | capable of inhibiting OSM-induced pSTAT3 | 10.2 | capable of inhibiting OSM-induced pSTAT3 | capable of inhibiting multiple cascades; also recorded: significant reductions, near nontreated levels |  |
| 21.9 ± 3.5 | O=C(/C=C/c1ccccc1)c1cc(-c2ccc3c(c2)OCO3)c(-c2ccc3c(c2)OCO3)o1 [SMI-10G, (E)-1-(4,5-Bis(benzo[d][1,3]dioxol-5-yl)furan-2-yl)-3-phenylprop-2-en-1-one] | capable of inhibiting OSM-induced pSTAT3 | 8.8 | capable of inhibiting OSM-induced pSTAT3 | capable of inhibiting multiple cascades; also recorded: significant reductions, near nontreated levels |  |
